# Legend:
# [1] = target: SHP2 (Homo sapiens (Human), UniProt Q06124); assay: SHP2 allosteric inhibition assay (DiFMUP prompt fluorescence); type: biochemical
# [2] = test system: Ceritinib resistant MGH049 cells; assay: Cell colony formation assay with ceritinib resistant MGH049 cells;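 on all read-outs here: tested compounds are SHP2 inhibitors given alone, colonies fixed and crystal violet stained, DMSO reference taken as the mean of six readings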; type: cell-based, human; settings: 7 days; for activity at 3 µM: Homo sapiens, 168 h, compound of Table 1 (3 μM) alone, normalized to DMSO without compound = 100, read-out: Normalized Crystal Violet abs. (590 nm) DMSO
# [3] = test system: MGH049, MGH045-2A and MGH073-2B cells; assay: Cell colony formation assay (crystal violet, FIG. 1); type: cell-based, human; settings: Compound No. 1 5 μM, 14 days
# From the text: FIG. 1. […]. For each cell line, all dishes were fixed, stained and photographed at the same time.
# The MGH049, MGH045-2A and MGH073-2B cell lines were established at Massachusetts General Hospital. MGH049 is described in Friboulet L, et al. Cancer Discov. 2014 June; 4(6):662-73. MGH045 is described in Friboulet L, et al. Cancer Discov. 2014 June; 4(6):662-73). MGH045-1A, is described in Science, 2014, December 19; 346(6216):1480-1).
# All human lung cancer samples were obtained from patients with informed consent, and all procedures were carried out under an Institutional Review Board (IRB)-approved protocol. The cell lines were cultured in DMEM (ATCC) supplemented with 10% FBS, or in RPMI (ATCC) supplemented with 15% FBS.
# Cell colony formation assays were used to assess cell viability and proliferation after compound treatments. Cells were plated into 6-well tissue culture plates (6×10^5 cells/well) in a total volume of 2 mL. After 24 hours, compounds were added to the plates. At the end points of the assays, cells were fixed, stained with crystal violet and photographed.
# […]. […] […].
# Sequence of SHP2 (Q06124 whole entry): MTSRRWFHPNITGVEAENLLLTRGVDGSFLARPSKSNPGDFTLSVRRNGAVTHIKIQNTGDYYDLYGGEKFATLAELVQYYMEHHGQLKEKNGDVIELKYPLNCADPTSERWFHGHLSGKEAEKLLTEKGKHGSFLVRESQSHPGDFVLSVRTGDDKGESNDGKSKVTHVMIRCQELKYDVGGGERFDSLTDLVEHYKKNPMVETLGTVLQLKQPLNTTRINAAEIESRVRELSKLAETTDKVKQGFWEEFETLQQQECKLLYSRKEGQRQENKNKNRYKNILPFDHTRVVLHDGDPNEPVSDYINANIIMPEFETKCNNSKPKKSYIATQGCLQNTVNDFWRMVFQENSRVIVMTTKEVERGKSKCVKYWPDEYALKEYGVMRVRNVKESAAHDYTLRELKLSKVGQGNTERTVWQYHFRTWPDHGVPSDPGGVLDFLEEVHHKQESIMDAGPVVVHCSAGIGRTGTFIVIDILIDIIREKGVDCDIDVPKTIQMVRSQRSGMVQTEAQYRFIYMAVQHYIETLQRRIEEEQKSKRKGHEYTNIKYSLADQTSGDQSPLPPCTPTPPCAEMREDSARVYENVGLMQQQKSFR
Structure (SMILES),IC50 [1],activity at 3 µM [2],effect on cell growth as a single agent [3],"effect on cell growth as a single agent ([2]; 3 μM, ceritinib-resistant cells)"
"CC1CCC2(CCN(c3cnc(Sc4ccnc(N)c4Cl)c(N)n3)CC2)[C@@H]1N (stereo partly drawn) [compound 15, (1R)-8-(6-amino-5-((2-amino-3-chloropyridin-4-yl)thio)pyrazin-2-yl)-2-methyl-8-azaspiro[4.5]decan-1-amine]",9 nM,31%,,
"C[C@@H]1OCC2(CCN(c3cnc(Sc4ccnc(N)c4Cl)cn3)CC2)[C@@H]1N [compound 22, (3S,4S)-8-(5-((2-amino-3-chloropyridin-4-yl)thio)pyrazin-2-yl)-3-methyl-2-oxa-8-azaspiro[4.5]decan-4-amine]",8 nM,19.5%,,
"C[C@@H]1OCC2(CCN(c3cnc(Sc4cc(N)nc(Cl)c4Cl)cn3)CC2)[C@@H]1N [compound 21, (3S,4S)-8-(5-((6-amino-2,3-dichloropyridin-4-yl)thio)pyrazin-2-yl)-3-methyl-2-oxa-8-azaspiro[4.5]decan-4-amine]",14 nM,48.2%,,
"Nc1nccc(Sc2cnc(N3CCC4(CC3)C[C@@H](O)C[C@H]4N)cn2)c1Cl [compound 18, (2R,4R)-4-amino-8-(5-((2-amino-3-chloropyridin-4-yl)thio)pyrazin-2-yl)-8-azaspiro[4.5]decan-2-ol]",4.5 nM,32.3%,,
"CC1(N)CCN(c2cnc(-c3cccc(Cl)c3Cl)c(N)n2)CC1 [Compound No. 1, 6-(4-amino-4-methylpiperidin-1-yl)-3-(2,3-dichlorophenyl)pyrazin-2-amine]",,117%,no effect on cell growth,no effect on cell growth
"C[C@@H]1OCC2(CCN(c3cnc(-c4cccc(Cl)c4Cl)c(N)n3)CC2)[C@@H]1N [compound 7, (3S,4S)-8-(6-amino-5-(2,3-dichlorophenyl)pyrazin-2-yl)-3-methyl-2-oxa-8-azaspiro[4.5]decan-4-amine]",39 nM,98.2%,,
"C[C@H]1C[C@@H](N)C2(CCN(c3cnc(Sc4ccnc(N)c4Cl)cn3)CC2)C1 [compound 19, (1R,3R)-8-(5-((2-amino-3-chloropyridin-4-yl)thio)pyrazin-2-yl)-3-methyl-8-azaspiro[4.5]decan-1-amine]",6 nM,96.1%,,
